Assay results as given in US20120004282A1, “RNA Interference Mediated Inhibition of the Intercellular Adhesion Molecule 1 (ICAM-1) Gene Expression Using Short Interfering Nucleic Acid (siNA)” (Merck Sharp & Dohme Corp,, priority 2009, published 2012).
[invAb] = inverted abasic unit; d = 2'-deoxy (DNA); m = 2'-O-methyl; r = 2'-OH (RNA); f = 2'-fluoro

Test system: ICAM-1 mRNA
Test: ICAM-1 mRNA knock-down in transfected Calu-1 cells (Taqman RT-PCR)
Assay type: cell-based, human
Details: Calu-1 cells, 10 nM siNA, 24 hrs post-transfection, mean ± S.D., relative to non-targeting control
Protocol: Calu-1 (human; ATCC cat# HTB-54): Cells were cultured at 37° C. in the presence of 5% CO2 and grown in McCoy's 5a medium supplemented with fetal bovine serum at a final concentration of 10% and 100 μg/mL of streptomycin and 100 U/mL penicillin.
All transfections were performed using RNAiMax (Invitrogen Cat# 13778-150) as per the manufacturer's instructions.
Calu-1 cells were plated in all wells of a tissue-culture treated, 96-well plate at final counts of 5,000 cells/well in 100 μL of appropriate culture media. Cells were cultured for 24 hours after plating at 37° C. in the presence of 5% CO2.
After 24 hours, complexes containing siNA and RNAiMax were created as follows. A solution of RNAiMax diluted 33-fold in OPTI-MEM was prepared. In parallel, solutions of the siNAs for testing were prepared to a final concentration of 120 nM in OPTI-MEM. After incubation of RNAiMax/OPTI-MEM solution at room temperature for 5 min, an equal volume of the siNA solution and the RNAiMax solution were added together for each of the siNAs. […] This solution was incubated at room temperature for 20 minutes. After incubation, 20 uL of the solution was added to each of the relevant wells. The final concentration of siNA in each well was 10 nM and the final volume of RNAiMax in each well was 0.3 uL.
The time of incubation with the RNAiMax-siNA complexes was 24 hours, unless otherwise indicated. There was no change in media between the transfection and harvesting of the cells unless otherwise indicated.
Dose response curves were carried out in a similar fashion in 96-well plates, while maintaining a constant amount of RNAiMax in each transfection.
RNA was extracted from a 96-well plate using the TaqMan® Gene Expression Cells-to-CT™ Kit (Cat# 4399002) with a modified protocol. Briefly, a 60 uL (1 plate) or 110 uL (2 plates) of the Lysis Solution with DNase I was dispensed into each well of the Lysis Buffer Plate (twin.tec full skirt plate). The lysis buffer and stop plates were stored at 4° C. until the cells were washed.
The plate was spun at 1100 rpm for 5 minutes. The culture medium was aspirated and discarded from the wells of the culture plate. The lysis was performed automatically using a BioMek FX instrument and method. After the Biomek method was completed, the lysis plate was incubated for 2 min. at room temperature. The lysis plate can be stored for 2 hours at 4° C., or at −20° C. or −80° C. for two months.
Each well of the reverse transcription plate required 10 uL of 2× reverse transcriptase Buffer, 1 uL of 20× reverse transcription enzyme and 2 uL of nuclease-free water. The reverse transcription master mix was prepared by mixing 2× reverse transcription buffer, 20× reverse transcription enzyme mix, and nuclease-free water. 13 uL of the reverse transcription master mix was dispensed into each well of the reverse transcription plate (semi-skirted). A separate reverse transcription plate was prepared for each cell plate. The plate was loaded onto a Biomek NX or Biomek FX Dual-96 and the Biomek method was run. The program is programmed to automatically added 7 uL of lysate from the cell lysis procedure described above into each well of the reverse transcription plate. The plate is sealed and spun on a centrifuge (1000 rpm for 30 seconds) to settle the contents to the bottom of the reverse transcription plate. The plate is placed in a thermocycler at 37° C. for 60 min, 95° C. for 5 min, and 4° C. until the plate is removed from the thermocycler. Upon removal, if not used immediately, the plate was frozen at −20° C.
A series of probes and primers were used to detect the various mRNA transcripts of the genes of ICAM-1 and ICAM-2 in human cell lines (see Table 2). All the Taqman probes and primers for the experiments here-in described were supplied as pre-validated sets by Applied Biosystems, Inc., (see Table 2). The assays were performed on an ABI 7900 instrument, according to the manufacturer's instructions. […]

| Substance | % KD Human |
| --- | --- |
| 48717-DC: siNA duplex, ICAM-1 target site 911 (m); sense B GGuGAcuGAGGAGuucGAc TTB; antisense GUCGAAcuccucAGucAccUU (sense GGUGACUGAGGAGUUCGACTT; antisense GUCGAACUCCUCAGUCACCUU; sense: DNA at AGT, 2'-fluoro at CU, [invAb] at 5' end, 3' end, backbone not given here; antisense: sugars from the 5' end rrrmmmffffffmmffmffmm, backbone not given here) | −9 ± 17% |
| 48718-DC: siNA duplex, ICAM-1 target site 1938 (h); sense B cucuuccucGGccuucccA TTB; antisense UGGGAAGGccGAGGAAGAGUU (sense CUCUUCCUCGGCCUUCCCATT; antisense UGGGAAGGCCGAGGAAGAGUU; sense: sugars from the 5' end f9 d2 f7 d3, [invAb] at 5' end, 3' end, backbone not given here; antisense: sugars from the 5' end r4 m4 f2 m11, backbone not given here) | 19 ± 11% |
| 48719-DC: siNA duplex, ICAM-1 target site 1230 (h); sense B cAGuGAccAucuAcAGcuu TTB; antisense AAGcuGuAGAuGGucAcuGUU (sense CAGUGACCAUCUACAGCUUTT; antisense AAGCUGUAGAUGGUCACUGUU; sense: DNA at AGT, 2'-fluoro at CU, [invAb] at 5' end, 3' end, backbone not given here; antisense: sugars from the 5' end rrrffmfmmmfmmffmffmmm, backbone not given here) | 71 ± 9% |
| 48720-DC: siNA duplex, ICAM-1 target site 1609 (h); sense B GuGucuAAAGGAuGGcAcu TTB; antisense AGUGccAuccuuuAGAcAcUU (sense GUGUCUAAAGGAUGGCACUTT; antisense AGUGCCAUCCUUUAGACACUU; sense: DNA at AGT, 2'-fluoro at CU, [invAb] at 5' end, 3' end, backbone not given here; antisense: sugars from the 5' end rrrmffmffffffmmmfmfmm, backbone not given here) | 48 ± 20% |
| 48721-DC: siNA duplex, ICAM-1 target site 523 (h); sense B GuuGcuccuGccuGGGAAc TTB; antisense GUUcccAGGcAGGAGcAAcUU (sense GUUGCUCCUGCCUGGGAACTT; antisense GUUCCCAGGCAGGAGCAACUU; sense: DNA at AGT, 2'-fluoro at CU, [invAb] at 5' end, 3' end, backbone not given here; antisense: sugars from the 5' end rrrfffmmmfmmmmmfmmfmm, backbone not given here) | 56 ± 16% |
| 48723-DC: siNA duplex, ICAM-1 target site 390 (h); sense B cuGGcAAuGcccAGAcAuc TTB; antisense GAUGucuGGGcAuuGccAGUU (sense CUGGCAAUGCCCAGACAUCTT; antisense GAUGUCUGGGCAUUGCCAGUU; sense: DNA at AGT, 2'-fluoro at CU, [invAb] at 5' end, 3' end, backbone not given here; antisense: sugars from the 5' end rrrmfffmmmfmffmffmmmm, backbone not given here) | 68 ± 12% |
| 48724-DC: siNA duplex, ICAM-1 target site 560 (h); sense B cuGAGcAAuGuGcAAGAAG TTB; antisense CUUcuuGcAcAuuGcucAcUU (sense CUGAGCAAUGUGCAAGAAGTT; antisense CUUCUUGCACAUUGCUCACUU; sense: DNA at AGT, 2'-fluoro at CU, [invAb] at 5' end, 3' end, backbone not given here; antisense: sugars from the 5' end rrrfffmfmfmffmfffmfmm, backbone not given here) | 34 ± 8% |
| 48725-DC: siNA duplex, ICAM-1 target site 1143 (h); sense B cAGucAGuGuGAccGcAGA TTB; antisense UCUGcGGucAcAcuGAcuGUU (sense CAGUCAGUGUGACCGCAGATT; antisense UCUGCGGUCACACUGACUGUU; sense: DNA at AGT, 2'-fluoro at CU, [invAb] at 5' end, 3' end, backbone not given here; antisense: sugars from the 5' end rrrmfmmffmfmffmmffmmm, backbone not given here) | 53 ± 19% |
| 48726-DC: siNA duplex, ICAM-1 target site 1217 (h); sense B GAGAcAcuGcAGAcAGuGA TTB; antisense UCAcuGucuGcAGuGucucUU (sense GAGACACUGCAGACAGUGATT; antisense UCACUGUCUGCAGUGUCUCUU; sense: DNA at AGT, 2'-fluoro at CU, [invAb] at 5' end, 3' end, backbone not given here; antisense: sugars from the 5' end rrrffmfffmfmmfmffffmm, backbone not given here) | 64 ± 16% |
| 48727-DC: siNA duplex, ICAM-1 target site 1521 (h); sense B GGGAuuGuccGGGAAAcuG TTB; antisense CAGuuucccGGAcAAucccUU (sense GGGAUUGUCCGGGAAACUGTT; antisense CAGUUUCCCGGACAAUCCCUU; sense: DNA at AGT, 2'-fluoro at CU, [invAb] at 5' end, 3' end, backbone not given here; antisense: sugars from the 5' end rrrffffffmmmfmmffffmm, backbone not given here) | 23 ± 6% |
